In series [1] the test system is liver mitochondrial glycerol phosphate dehydrogenase (mGPDH) activity. The series is described as follows: Subacute study in normal rats, continuous infusion: liver mGPDH activity. It counts as in vivo, rats (Sprague-Dawley). The settings on record: continuous infusion 1 mg/kg/day. The text has this:
(§1) Efficacy endpoints include serum cholesterol, liver mitochondrial glycerol phosphate dehydrogenase (mGPDH) activity and the expression of relevant liver genes (e.g., the LDL-receptor, apoB, cpt-1, spot14 and apoAI). Safety parameters include heart weight, heart rate, heart mGPDH activity, the expression and key genes involved in cardiac structure and function (e.g., Serca2, HCN2, Kv1.5, MHCα, MHCβ, Alpha1c), and standard plasma chemistry analysis (liver enzymes, electrolytes, creatinine). Endocrine effects are monitored by analysis of serum thyroid stimulating hormone (TSH). [Taylor et al., Mol Pharmacol 52(3): 542-7 (1997); Weitzel et al., Eur J Biochem 268(14):4095-4103 (2001)]
Methods: mGPDH activity was analyzed in isolated mitochondria using 2-(4-iodophenyl)-3-(4-nitrophenyl)-5-phenyl tetrazolium chloride as the terminal electron acceptor (Gardner R S, Analytical Biochemistry 59:272 (1974)). Commercially available GPDH was used in each assay as a standard (Sigma, St. Louis, Mo.). Changes in levels of mRNA for liver and heart genes are analyzed using reverse transcriptase followed by real-time PCR analysis. The analysis is performed using an iCycler instrument (Biorad) and appropriate primers by means of standard methodology [e.g., Schwab D A et al. (2000) Life Sciences 66: 1683-94]. The amounts of mRNA are normalized to an internal control, typically, cyclophilin. Serum TSH is measured using an enzyme immunoassay (EIA) kit designed for rat TSH (Amersham Pharmacia Biotech, Arlington Heights, Ill.).
(§2) Normal rats (Sprague-Dawley) were maintained on a standard diet. […] The compounds were brought up to an appropriate volume using PBS and BSA to maintain solubility within the pump. The compounds were chemically stable in the excipient at 37° C. for 7 days.
(§3) Values are expressed as percent of control. (Table 4)

Series [2] is described as follows: Subacute study in normal rats, continuous infusion: heart weight. It counts as in vivo, rats (Sprague-Dawley). As to conditions: continuous infusion 1 mg/kg/day.
Text: as §1, §2, §3

Structures are written as SMILES.

As for `Cc1cc(OCP(=O)(O)O)cc(C)c1Cc1ccc(O)c(C(C)C)c1` [Compound 7, [3,5-dimethyl-4-(4′-hydroxy-3′-iso-propylbenzyl)phenoxy]methylphosphonic acid], the “Liver GPDH” value in series [1] is listed as 399% of control. For the same compound, in series [2], the “Heart Weight” value is 108% of control and the cardiac hypertrophy result is “did not cause cardiac hypertrophy”.

These data come from US20090028925A1, “Novel Phosphinic Acid-Containing Thyromimetics” (priority 2005, published 2009).
